The values below come from PMC6269909, “Investigating the Antioxidant and Acetylcholinesterase Inhibition Activities of Gossypium herbaceam” (Molecules, 2013).

Usually pIC50 stands for the IC50 on a negative log10 scale, so that one unit is a factor of ten.

Assay [1] in a line: DPPH radical scavenging assay. The settings on record: Table 2, mean of three replicates, read-out: IC50 for inhibition of DPPH radical formation. The format is biochemical. The text has this: (§1) The DPPH radical activity test was used to measure the hydrogen atom or electron donor capacity of the samples to the stable radical DPPH formed in liquid solution. Thus, it measures the capacity of the samples to scavenge free radicals in solution [17]. Proton radical scavenging is an important attribute of antioxidants. […] ABTS, a protonated radical, has characteristic absorbance at 734 nm which decreases with the scavenging of the proton radicals. […]
DPPH is a stable free radical that reacts with compounds that can donate a hydrogen atom. This method is based on the scavenging of DPPH through the addition of a radical species or an antioxidant that decolorizes the DPPH solution. The antioxidant activity is then measured by the extent of decrease in absorption at 515 nm. In brief, a 0.2 mM solution of DPPH in methanol was prepared, and 100 μL of this solution was added to 100 μL of the sample solution in methanol at varying concentrations. The solutions in the 96 well micro plates were shaken well and incubated in the dark for 30 minutes at room temperature. The absorbance was measured at 515 nm. A large decrease in the absorbance of the reaction mixture indicates substantial free radical scavenging activity of the compound. DPPH radical scavenging activity (%) = [(Abscontrol − Abscompound)]/(Abscontrol)] × 100 where Abscontrol is the absorbance of DPPH radical + methanol; Abscompound is the absorbance of DPPH radical + compound/standard.
Background: Loss of DPPH colour is used to gauge radical scavenging.

The nature of assay [2]: ABTS radical scavenging assay. Type of assay: biochemical. The settings on record: Table 2, mean of three replicates, read-out: IC50 for inhibition of ABTS radical formation.
Text: as §1
The ABTS radical scavenging method was developed by Rice-Evans and Miller in 1994 and was then modified by Rice-Evants et al. in 1999. The modification is based on the activation of metmyo-globin with hydrogen peroxide in the presence of ABTS^•+ to produce a radical cation. This improved method generates a blue/green ABTS^•+ chromophore via the reaction of ABTS and potassium persulfate and is now widely used. The antioxidant activity is then measured by the decrease in absorption at 734 nm. In brief, ABTS radical cation (ABTS^•+) was produced by reacting ABTS stocking solution with […] potassium persulfate and kept in the dark at room temperature for 12–16 h before use. The samples containing the ABTS^•+ solution were diluted with methanol to obtain an absorbance of 0.700 (±0.02) at 734 nm and equilibrated at 30 °C. The ABTS^•+ solution was freshly prepared for each assay. Different concentrations of compounds (16 μL) were allowed to react with 184 μL of the ABTS^•+ solution and the absorbance was taken at 734 nm after 7 min using spectrophotometer. The ABTS^•+ scavenging capacity of the compound percentage inhibition was calculated using formula: ABTS radical scavenging activity (%) = [(Abscontrol − Abscompound)]/(Abscontrol)] × 100, where Abscontrol is the absorbance of ABTS radical + methanol; Abscompound is the absorbance of ABTS radical + compound/standard.

A short description of assay [3]: Lipid peroxidation assay (TBARS), egg yolk homogenates. The format is biochemical. The settings on record: Table 2; egg yolk homogenate, FeSO4; mean of three replicates; read-out: IC50 for inhibition of peroxidation of lipids, estimated as thiobarbituric acid reactive substances. The method, then: Lipid peroxidation involves the formation and propagation of lipid radicals with numerous deleterious effects, including destruction of membrane lipids, metabolic disorders and inflammation, and production of malondialdehyde (MDA) is a hallmark of this process. Inhibition of lipid peroxidation was assessed by amount of MDA produced. Lipids in egg yolk undergo rapid nonenzymatic peroxidation in the presence of ferrous sulphate. […] Phenolics present in plant sources have received considerable attention over the past decade because of their potential to prevent lipid peroxidation and diseases associated with it.
A modified thiobarbituric acid-reactive species (TBARS) assay was used to measure the lipid peroxide formed, using egg yolk homogenates as lipid-rich media. Adapted TBARS method was employed to measure the antioxidant capacity. Briefly, egg homogenate (100 μL of 1:25, v/v in phosphate-buffered saline (PBS) PH 7.4) and 10 μL of different concentrations of sample were added to a test tube as well as added 25 mmol/L freshly prepared FeSO4 made up to 300 μL with PBS. The homogenate was incubated at 37 °C for 15 min and then the reaction was stopped by adding 50 μL 15% w/v trichloroacetic acid (TCA) and centrifugation (3,500 rpm) for 15 min. An aliquot of 200 μL from supernatant was mixed with 100 μL thiobarbituric acid (TBA) and heated at 95 °C for 30 min.

For assay [4], the target named is T1, Acetylcholinesterase (AChE) type VI-S from electric eel (Electrophorus electricus, UniProt O42275).
T1 construct: purchased Sigma (St. Louis, MO, USA)
As to the kind of experiment: biochemical. The text has this: Acetylcholinesterase (AChE) type VI-S from electric eel, 5-5′-dithiobis-[2-nitrobenzoicacid] (DTNB), 1-1-diphenyl-2-picrylhydrazyl (DPPH), 2,2'-azinobis-(3-ethylbenzothiazoline-6-sulfonic acid) (ABTS), acetylthiocholine iodide (AChI), dimethyl sulfoxide (DMSO), ferrous sulfate (FeSO4·7H2O), thiobarbituric acid (TBA), trichloroacetic acid (TCA), potassium ferricyanide were obtained from Sigma (St. Louis, MO, USA). L-3-ketothreohexuronic acid lactone (vitamin C) and huperzine A were purchased from the National Institutes for Food and Drug Control, Beijing, China. All the other reagents were of analytical grade.
Inhibition of acetyl cholinesterase activity of samples was measured by the micro-plate assay adapted. AChE inhibitory activity was measured by slightly modifying the spectrophotometric method from the literature which was initially developed by Ellman. Briefly, in this method, 100 μL of […] sodium phosphate buffer (pH = 8.0), 20 μL of DTNB, 20 μL of test solution and 2 μL of AChE solution were added using a multichannel automatic pipette into a 96-well micro plate and incubated for 15 min at 25 °C.

The test system of assay [5] is PC12 cells. As to the kind of experiment: tBHP exposure in PC12 cells, cell viability (MTT). Type of assay: cell-based, Rat. The settings on record: for Protection against tBHP-induced cell death in PC12 cells (cell viability, MTT): pre-treated 100 μM for 24 h, then tBHP 200 μM for 3 h, p < 0.05. The procedure:
tBHP caused a reduction in cell viability with an IC50 value for PC12 cells death at 200 μM. PC12 cells were an established model of nerve growth factor (NGF) - induced neurite formation. […] In the control sample, the value of cell viability was set to be 100%.
Rat pheochromocytoma cells (PC12) cells were kindly donated by Professor Dong T. X. (The Hong Kong University of Science and Technology, Hong Kong, China). PC12 cells were maintained in 75 cm culture flasks containing 20 mL of RPMI-1640 media supplemented with 1% FBS, 1% L-glutamine, 1% non-essential amino acids and 1% penicillin/streptomycin. Cells were maintained in an incubator at 37 °C with 5% CO2. Experiments and cell maintenances were performed in a laminar flow hood under sterile conditions. Cells were passaged every 4–5 days and detached from flasks using 1× trypsin EDTA. Cell counts were performed using trypan blue to stain non viable cells, which were excluded from the count. Ninety-six well plates were used for cell viability experiments. The cells were then allowed to equilibrate for 24 h before the experiment.
H2O2 is a well established pro-oxidant in PC12 cells over the concentration range used. tBHP shares some of the same properties of H2O2 but generates a more shallow neurotoxicity response over a wider concentration range than H2O2 in PC12 cells and elicits greater lipid peroxidation. […] For anti-oxidation effect, the cultures were treated with tBHP (200 μM) for 3 h. Cultures were subjected to cell viability test using the colorimetric MTT assay. Purple crystal inside the cells was dissolved by DMSO and measured by absorbance at 570 nm.

[6] abbreviates: Table 2, mean of three replicates, read-out: IC50 for inhibition of AChE.

SMILES strings stand for the structures. pIC50: −log10 of the molar value. Like-named read-outs stand apart in the source and are kept apart here.

T1 sequence (O42275 24-633): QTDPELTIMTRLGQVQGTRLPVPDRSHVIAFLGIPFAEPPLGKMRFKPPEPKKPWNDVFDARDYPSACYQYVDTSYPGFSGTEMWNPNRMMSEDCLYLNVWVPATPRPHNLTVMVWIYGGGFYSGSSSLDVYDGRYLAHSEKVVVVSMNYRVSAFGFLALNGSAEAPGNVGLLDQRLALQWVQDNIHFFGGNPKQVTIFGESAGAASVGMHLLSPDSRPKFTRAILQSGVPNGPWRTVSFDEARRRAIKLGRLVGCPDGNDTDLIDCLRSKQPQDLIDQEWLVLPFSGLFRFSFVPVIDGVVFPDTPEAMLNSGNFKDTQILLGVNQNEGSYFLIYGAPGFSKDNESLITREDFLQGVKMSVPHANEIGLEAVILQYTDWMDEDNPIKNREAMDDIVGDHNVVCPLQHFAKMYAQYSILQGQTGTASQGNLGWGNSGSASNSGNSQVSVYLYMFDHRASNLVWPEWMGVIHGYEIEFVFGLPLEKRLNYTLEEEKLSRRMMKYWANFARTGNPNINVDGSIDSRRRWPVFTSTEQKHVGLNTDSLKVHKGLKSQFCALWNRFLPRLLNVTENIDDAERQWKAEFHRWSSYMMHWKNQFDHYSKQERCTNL

Regarding `O=c1c(O[C@@H]2O[C@H](CO)[C@H](O)[C@H](O)[C@H]2O)c(-c2ccc(O)c(O)c2)oc2cc(O)cc(O)c12` [Hyperoside], the pIC50 in assay [1] was 4.95; in assay [2], 3.95; in assay [3] it was 5.13; in assay [4] it was 4.02.

In the case of `O=c1c(O[C@@H]2O[C@H](CO)[C@@H](O)[C@H](O)[C@H]2O)c(-c2ccc(O)c(O)c2)oc2cc(O)cc(O)c12` [Isoquercetin], the pIC50 is 5.44 in assay [1], 4.57 in assay [2], 5.06 in assay [3] and 4.24 in assay [4].

With `COc1cc(-c2oc3cc(O[C@@H]4O[C@H](CO)[C@@H](O)[C@H](O)[C@H]4O)cc(O)c3c(=O)c2O)ccc1O` [Isorhamnetin-7-O-β-D-glucopyranoside], the pIC50 in assay [1] was 5.76; in assay [2], 4.66; in assay [3], 5.14; in assay [4] (setting [6]) it was 4.25.

For `O=c1c(O)c(-c2ccc(O)cc2)oc2cc(O)cc(O)c12` [Kaempferol], the figures for the negative-log IC50 (pIC50) in assay [1] and in assay [2] were 5.26 and 4.38, respectively. In addition, the “Protection against tBHP-induced cell death in PC12 cells (cell viability, MTT)” value (“Protection” for short) in assay [5] is reported as “could exert the anti-oxidation effect in protecting the tBHP-induced cell death”.

Turning to `O=c1c(O[C@@H]2O[C@H](CO)[C@@H](O)[C@H](O)[C@H]2O)c(-c2ccc(O)c(O)c2)oc2cc(O[C@@H]3O[C@H](CO)[C@@H](O)[C@H](O)[C@H]3O)cc(O)c12` [Quercetin-3,7-di-O-β-D-glucopyranosid], the negative-log IC50 (pIC50) was 5.26 in assay [1], 4.29 in assay [2], 4.48 in assay [3] and 4.17 in assay [4] (setting [6]).

`O=c1c(O)c(-c2ccc(O)c(O[C@@H]3O[C@H](CO)[C@@H](O)[C@H](O)[C@H]3O)c2)oc2cc(O)cc(O)c12` [Quercetin-3′-O-β-D-glucoside]: the pIC50 in assay [1] is 5.43; in assay [2], 4.46; in assay [3], 5.05; in assay [4] (setting [6]) it was 4.05. The “Protection” value in assay [5] is recorded as “could exert the anti-oxidation effect in protecting the tBHP-induced cell death”.

`O=c1c(O)c(-c2ccc(O)c(O)c2)oc2cc(O)cc(O)c12` [Quercetin]: the negative logarithm of the IC50 (pIC50) was 4.71 in assay [1] (listed as quercetin); 6.08 in assay [1]; 6.08 in assay [2] (listed as quercetin); 4.71 in assay [2]; 4.88 in assay [3].

For `O=c1c(O)c(-c2ccc(O)c(O)c2)oc2cc(OC3OC(CO)C(O)C(O)C3O)cc(O)c12` (stereo not drawn) [Quercimeritin], the negative-log IC50 (pIC50) in assay [1] was 5.43; in assay [2], 4.60; in assay [3], 5.16; in assay [4], 4.28. The “Protection” value in assay [5] is “could exert the anti-oxidation effect in protecting the tBHP-induced cell death”.

Take `O=C1O[C@H]([C@@H](O)CO)C(O)=C1O` [Vit C, L-3-ketothreohexuronic acid lactone, reference compound]: in assay [5], the “Protection” value is listed as “protect the cells against oxidation significantly”.

Regarding `CC(C)(C)OO` [tBHP, tertiary butyl hydroperoxide, reference compound], the pIC50 in assay [5] (reduction in cell viability by tBHP, read-out: IC50 value for PC12 cells death) is 3.70.
